Laboratory results taken from BigSolDB 2.1.

CC(=O)[C@@]12O[C@@H]1C[C@H]1[C@@H]3CCC4=CC(=O)CC[C@]4(C)[C@H]3CC[C@@]12C
Conditions	solubility (mole fraction)
in DMSO, 312.45 K	0.00539
in DMSO, 315.5 K	0.00572
in DMSO, 318.35 K	0.00657
in DMSO, 322.35 K	0.00756
in DMSO, 326.5 K	0.0087
in DMSO, 328.65 K	0.00937
in DMSO, 331.2 K	0.0101
in DMSO, 334.9 K	0.0115
in DMSO, 339.15 K	0.0135
in DMSO, 343.95 K	0.0161
in DMSO, 348.35 K	0.0188
in DMSO, 353.45 K	0.0223
in isopropanol, 296.65 K	0.00307
in isopropanol, 299.55 K	0.00341
in isopropanol, 303.25 K	0.00405
in isopropanol, 306.35 K	0.00486
in isopropanol, 311.75 K	0.00598
in isopropanol, 314.8 K	0.00689
in isopropanol, 317.85 K	0.00752
in isopropanol, 322.95 K	0.00992
in isopropanol, 325.6 K	0.011
in isopropanol, 328.75 K	0.0125
in isopropanol, 333.25 K	0.0152
in isopropanol, 337.45 K	0.0177
in n-butanol, 300.85 K	0.00412
in n-butanol, 303.9 K	0.00473
in n-butanol, 306.75 K	0.00543
in n-butanol, 309.85 K	0.00624
in n-butanol, 314.25 K	0.00765
in n-butanol, 319.18 K	0.00919
in n-butanol, 323.55 K	0.0109
in n-butanol, 328.05 K	0.0134
in n-butanol, 332.75 K	0.0162
in n-butanol, 336.66 K	0.019
in n-butanol, 340.3 K	0.0219
in n-butanol, 343.5 K	0.0244
in n-propanol, 299.15 K	0.00349
in n-propanol, 304.05 K	0.00459
in n-propanol, 307.5 K	0.00524
in n-propanol, 311.55 K	0.00623
in n-propanol, 313.7 K	0.00684
in n-propanol, 316.25 K	0.00769
in n-propanol, 320.65 K	0.00908
in n-propanol, 324.25 K	0.0105
in n-propanol, 328.25 K	0.0122
in n-propanol, 332.05 K	0.0143
in n-propanol, 335.25 K	0.0165
in n-propanol, 340.6 K	0.0203

CC(=O)[C@@]12O[C@@H]1C[C@H]1[C@@H]3CCC4=CC(=O)CC[C@]4(C)[C@H]3[C@H](O)C[C@@]12C
Conditions	solubility (mole fraction)
in 1,4-dioxane, 298 K	0.00293
in 1,4-dioxane, 302.75 K	0.00353
in 1,4-dioxane, 306.39 K	0.00408
in 1,4-dioxane, 310.55 K	0.00447
in 1,4-dioxane, 314.75 K	0.00518
in 1,4-dioxane, 317.25 K	0.0055
in 1,4-dioxane, 320.35 K	0.00605
in 1,4-dioxane, 325.05 K	0.00687
in 1,4-dioxane, 328.55 K	0.00765
in 1,4-dioxane, 332.05 K	0.00845
in 1,4-dioxane, 335.35 K	0.00932
in 1,4-dioxane, 340.15 K	0.0105
in DMSO, 297.75 K	0.00423
in DMSO, 301.3 K	0.00515
in DMSO, 311.06 K	0.00772
in DMSO, 315.15 K	0.00843
in DMSO, 319.05 K	0.00966
in DMSO, 324.25 K	0.0112
in DMSO, 327.15 K	0.0126
in DMSO, 329.55 K	0.0141
in DMSO, 333.67 K	0.016
in DMSO, 337.43 K	0.0178
in DMSO, 340.25 K	0.0196
in DMSO, 344.65 K	0.0228
in isopropanol, 297.95 K	0.000542
in isopropanol, 300.25 K	0.000643
in isopropanol, 303.45 K	0.000717
in isopropanol, 308.05 K	0.000952
in isopropanol, 312.65 K	0.00126
in isopropanol, 316.35 K	0.00147
in isopropanol, 320.75 K	0.0019
in isopropanol, 323.85 K	0.00212
in isopropanol, 327.45 K	0.00262
in isopropanol, 331.95 K	0.00311
in isopropanol, 335.65 K	0.00368
in isopropanol, 340.25 K	0.00456
in n-butanol, 298.75 K	0.000597
in n-butanol, 304.45 K	0.000775
in n-butanol, 307.35 K	0.000935
in n-butanol, 310.75 K	0.00113
in n-butanol, 315.67 K	0.00143
in n-butanol, 320.75 K	0.00177
in n-butanol, 324.35 K	0.00205
in n-butanol, 328.55 K	0.00237
in n-butanol, 331.65 K	0.00268
in n-butanol, 334.15 K	0.00304
in n-butanol, 336.45 K	0.00334
in n-butanol, 340.15 K	0.00384
in n-propanol, 300.5 K	0.000796
in n-propanol, 303.25 K	0.000933
in n-propanol, 306.75 K	0.00109
in n-propanol, 309.9 K	0.00125
in n-propanol, 312.7 K	0.00142
in n-propanol, 317.15 K	0.00172
in n-propanol, 321.67 K	0.00208
in n-propanol, 324.85 K	0.00235
in n-propanol, 327.95 K	0.0027
in n-propanol, 332.65 K	0.00322
in n-propanol, 336.85 K	0.00382
in n-propanol, 341.65 K	0.00463
